The values below come from patent US5098706A, “Juvenile hormone esterase for insect control” (The Regents of the University of California, priority 1988, dated 1992).

One assay deals with tomato hornworm larvae. The experiment in a line: Prevention of cuticular blackening in tomato hornworm larvae injected with juvenile hormone esterase. The assay is classed as in vivo, Manduca sexta. Conditions: third stadium larvae injected with 9 μg (148 pmoles) juvenile hormone esterase, then 0.17 nmoles epofenonane. The method, then:
Tomato hornworm larvae, obtained from Zoecon Corp., were injected with the affinity purified juvenile hormone esterase obtained from Example I. Injections were performed at 10 hours after lights on the day before ecdysis to the third stadium. Larvae were reared on a 14L"10D photoperiod. Injections were made in 1.5 μl of buffer cocktail containing 3-10 μg (49-164 pmoles) of esterase. Total protein in each injection was kept constant at 10 μg with […] bovine serum albumen (BSA). Control injections in buffer contained 10 μg BSA or 12 μg larval blood protein from which the esterase was removed.
FIG. 2 illustrates third stadium tomato hornworm larvae after injection with 9 μg (148 pmoles) of juvenile hormone esterase as in FIG. 1, but then treated with 17 nmoles epofenonane (left), 0.17 nmoles epofenonane (middle) or no epofenonane (right). […] Epofenonane is a juvenile hormone chemical mimic, although it is not a substrate for juvenile hormone esterase. Thus, FIG. 2 illustrates that even a dose of juvenile hormone which is too low completely to prevent an anti-juvenile hormone effect can still effect a localized response.

Assay [1] concerns the target T1, juvenile hormone esterase (Heliothis virescens, UniProt P12992).
T1 sequence (P12992 20-564): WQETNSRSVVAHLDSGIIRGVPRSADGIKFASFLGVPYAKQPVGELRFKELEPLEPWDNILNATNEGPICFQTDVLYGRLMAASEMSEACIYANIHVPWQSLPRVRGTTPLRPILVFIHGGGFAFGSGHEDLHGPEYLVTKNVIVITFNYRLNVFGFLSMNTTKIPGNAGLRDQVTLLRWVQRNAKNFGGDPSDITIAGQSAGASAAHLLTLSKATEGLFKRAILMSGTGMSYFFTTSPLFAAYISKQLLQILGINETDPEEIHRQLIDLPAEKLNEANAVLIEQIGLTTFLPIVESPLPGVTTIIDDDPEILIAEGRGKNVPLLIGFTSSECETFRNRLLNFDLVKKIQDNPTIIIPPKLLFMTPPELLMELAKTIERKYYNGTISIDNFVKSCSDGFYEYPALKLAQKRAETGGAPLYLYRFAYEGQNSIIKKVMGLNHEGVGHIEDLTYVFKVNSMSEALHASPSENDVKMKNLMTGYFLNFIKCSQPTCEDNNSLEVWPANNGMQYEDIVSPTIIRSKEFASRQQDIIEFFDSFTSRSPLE
The experiment in a line: Juvenile hormone esterase kinetics for juvenile hormone. The class given is biochemical. Conditions: substrate juvenile hormone. The source says:
(§1) Juvenile hormone esterase is biochemically interesting in that it is an extraordinarily efficient enzyme. The very low Km ^31 6×10^-8 M of juvenile hormone esterase, its high kcat, and the low molarity of the enzyme even in the last larval stadium indicate that production of even small amounts of juvenile hormone esterase (<0.1% of total protein) should overpower the ability of the corpora allata to make juvenile hormone. This destruction of the juvenile hormone will be […] by the juvenile hormone hemolymph carrier protein.

The target of assay [2] is T2, juvenile hormone hemolymph carrier protein (H. virescens) (Heliothis virescens, UniProt Q25175).
T2 construct: preparation not described in the excerpts
T2 sequence (Q25175 19-242): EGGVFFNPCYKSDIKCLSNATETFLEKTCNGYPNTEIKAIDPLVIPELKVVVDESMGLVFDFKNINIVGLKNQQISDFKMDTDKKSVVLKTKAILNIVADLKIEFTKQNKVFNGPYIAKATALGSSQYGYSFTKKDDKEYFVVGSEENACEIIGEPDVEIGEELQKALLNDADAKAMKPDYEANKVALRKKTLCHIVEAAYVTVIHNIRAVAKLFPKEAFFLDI
The experiment in a line: Binding of juvenile hormone by the hemolymph carrier protein. The settings on record: juvenile hormone bound by carrier protein.
Source text: as §1

As usually defined, the Km is the substrate concentration at which the rate is half of its maximum. What is called Kd is the concentration at which binding is half-saturated. Lower therefore signals tighter binding.

On to `CCc1ccc(OCCC(CC)CCC2OC2(C)CC)cc1` (stereo not drawn) [epofenonane], for which the “prevention of blackening of the cuticle” value in the assay with tomato hornworm larvae is “not sufficient to prevent completely the blackening of the cuticle”.

On to juvenile hormone, for which the Km in assay [1] came to 0.06 µM. Also, the Kd in assay [2] came out at 610 nM.
